These are literature values, as cited in US7351424B2, “Enhanced purity trans-lutein-ester compositions and methods of making same” (Bio Lut S.A. de C.V., priority 2004, dated 2008).

For this data set the following is noted: human, in vivo.

With lutein esters, the bioavailability entry is reported as “even better than free lutein”.
